Assay results reported in patent US20040023295A1, “Methods and systems for analyzing complex biological systems” (priority 2001, published 2004).

System: Saccharomyces cerevisiae wild type strain BY4743
Test: Yeast azole drug experiment AF1: metabolite analysis (GC-MS, LC-MS)
Format: cell-based

## C[C@@H]1[C@H](O)[C@@H](C)/C=C/C=C/C=C/C=C/C=C/C=C/C=C/[C@H](O[C@@H]2O[C@H](C)[C@@H](O)[C@H](N)[C@@H]2O)C[C@@H]2O[C@](O)(C[C@@H](O)C[C@@H](O)[C@H](O)CC[C@@H](O)C[C@@H](O)CC(=O)O[C@H]1C)C[C@H](O)[C@H]2C(=O)O [Amphoteracin B]
nLC
  Fold Change urocanic acid: 0
  Fold Change xanthosine-DiH2O: 0
  Fold Change zeatin: 0
pLC
  Fold Change urocanic acid: 0
  Fold Change xanthosine (diH2O): 0
  Fold Change zeatin: 0
Platform GC, p-Value 0.000388379
  Fold Change of metabolite disaccaride2: −0.9977
Platform GC, p-Value 0.000700744
  Fold Change of metabolite disaccaride3: −0.9977
Platform GC, p-Value 0.003279434
  Fold Change of metabolite tms glutamine3: −0.8935
Platform GC, p-Value 0.010760299
  Fold Change of metabolite phenylalanine: −0.9797
Platform GC, p-Value 0.011300115
  Fold Change of metabolite ornithine3: −0.9853
Platform GC, p-Value 0.012983194
  Fold Change of metabolite TMS mevalonic acid lactone: −0.9767
Platform GC, p-Value 0.015444108
  Fold Change of metabolite malic acid: −0.963
Platform GC, p-Value 0.015876175
  Fold Change of metabolite leucine: −0.9443
Platform GC, p-Value 0.019324613
  Fold Change of metabolite glutamine: −0.9116
Platform GC, p-Value 0.019518223
  Fold Change of metabolite sugar?: −0.933
Platform GC, p-Value 0.021030517
  Fold Change of metabolite isoleucine: −0.9533
Platform GC, p-Value 0.024172801
  Fold Change of metabolite aspartic acid: −0.9743
Platform GC, p-Value 0.029953667
  Fold Change of metabolite tms tyrosine3: −0.9473
Platform GC, p-Value 0.032217789
  Fold Change of metabolite tms lysine4: −0.9783
Platform GC, p-Value 0.041202857
  Fold Change of metabolite glycanopyrose: −0.958
Platform GC, p-Value 0.054639399
  Fold Change of metabolite alanine: −0.7773
Platform GC, p-Value 0.063199416
  Fold Change of metabolite threonine3: −0.8933
Platform GC, p-Value 0.073159868
  Fold Change of metabolite threonine2: −0.8553
Platform GC, p-Value 0.089234962
  Fold Change of metabolite glycerol: −0.815
Platform GC, p-Value 0.114118055
  Fold Change of metabolite ergosterol: 2.303
Platform GC, p-Value 0.186711806
  Fold Change of metabolite fucosterol: −0.6553
Platform GC, p-Value 0.233348939
  Fold Change of metabolite iso citric acid: −0.6183
Platform GC, p-Value 0.254158772
  Fold Change of metabolite squalene: −0.5745
Platform GC, p-Value 0.325422554
  Fold Change of metabolite oleic acid: −0.4593
Platform GC, p-Value 0.431923912
  Fold Change of metabolite glycine: 0.8807
Platform GC, p-Value 0.488896519
  Fold Change of metabolite lysine: −0.3925
Platform GC, p-Value 0.503020409
  Fold Change of metabolite palmiteliadic acid: 0.515
Platform GC, p-Value 0.601581614
  Fold Change of metabolite tms tyrosine2: −0.3593
Platform GC, p-Value 0.660192025
  Fold Change of metabolite octadecanoic acid: 0.21
Platform GC, p-Value 0.690626296
  Fold Change of metabolite mevalonic acid lactone: −0.1276
Platform GC, p-Value 0.744108261
  Fold Change of metabolite pyrimidine: −0.185
Platform GC, p-Value 0.793963653
  Fold Change of metabolite tetradecanoic acid: 0.07967
Platform GC, p-Value 0.921125845
  Fold Change of metabolite hexadecanoic acid: −0.2427
Platform GC, p-Value 0.983733869
  Fold Change of metabolite phosphate: −0.007333
Platform GC, p-Value 1
  Fold Change of metabolite campesterol: 0
  Fold Change of metabolite desmosterol: 0
Platform GC, p-Value 1.48992E−05
  Fold Change of metabolite ornithine2: −1
Platform GC, p-Value 6.41E−06
  Fold Change of metabolite asparagine: −1
Platform GC, p-Value 7.54E−06
  Fold Change of metabolite disaccaride1: −1
Platform GC, p-Value 7.71E−06
  Fold Change of metabolite lanosterol: −1
Platform nLC (first kinetin line), p-Value 1
  Fold Change of metabolite kinetin: 0
Platform nLC (second kinetin line), p-Value 1
  Fold Change of metabolite kinetin: 0
Platform nLC, p-Value 0.000680198
  Fold Change of metabolite cytidine: −0.9986
Platform nLC, p-Value 0.027544382
  Fold Change of metabolite isocitric/citric/qu: 2.549
Platform nLC, p-Value 0.077524891
  Fold Change of metabolite lactic acid: −0.02583
Platform nLC, p-Value 0.149169352
  Fold Change of metabolite allantoin: 3.97
Platform nLC, p-Value 0.186179266
  Fold Change of metabolite orotic acid: 8380
Platform nLC, p-Value 0.193450596
  Fold Change of metabolite succinic: 0.8663
Platform nLC, p-Value 0.197015297
  Fold Change of metabolite 3-indolylacetonitri: −0.9998
Platform nLC, p-Value 0.217809679
  Fold Change of metabolite citrulline: 1659
Platform nLC, p-Value 0.225631474
  Fold Change of metabolite 2-ketobutyric acid: −0.9992
Platform nLC, p-Value 0.225682636
  Fold Change of metabolite sucrose: 0.4493
Platform nLC, p-Value 0.238894937
  Fold Change of metabolite fumaric/3m2oxobutan: 0.4423
Platform nLC, p-Value 0.273438701
  Fold Change of metabolite glucosamine6PO4: −0.9951
Platform nLC, p-Value 0.29960644
  Fold Change of metabolite gallic acid: 0.1622
Platform nLC, p-Value 0.315413423
  Fold Change of metabolite arginine: −0.4885
Platform nLC, p-Value 0.363209057
  Fold Change of metabolite biotin: 1.077
Platform nLC, p-Value 0.369522244
  Fold Change of metabolite nopaline: 0.3342
Platform nLC, p-Value 0.372039959
  Fold Change of metabolite hypoxanthine: 0.1655
Platform nLC, p-Value 0.380816515
  Fold Change of metabolite tryptophan: 1.142
Platform nLC, p-Value 0.40985594
  Fold Change of metabolite DLaminoadipic acid: 1.411
Platform nLC, p-Value 0.41837757
  Fold Change of metabolite inostol/glucos/sorb: −0.5905
Platform nLC, p-Value 0.425021511
  Fold Change of metabolite guanosine: 1.131
Platform nLC, p-Value 0.427037943
  Fold Change of metabolite caffeic acid: −0.5882
Platform nLC, p-Value 0.473753211
  Fold Change of metabolite ornithine: 2.534
Platform nLC, p-Value 0.497517178
  Fold Change of metabolite malic acid: 0.6212
Platform nLC, p-Value 0.518220081
  Fold Change of metabolite proline: 0.4603
Platform nLC, p-Value 0.622408732
  Fold Change of metabolite 2-ketoglutaric: 8.791
Platform nLC, p-Value 0.62524207
  Fold Change of metabolite alanine: 0.1599
Platform nLC, p-Value 0.68492695
  Fold Change of metabolite sorbitol/mannitol: 0.2162
Platform nLC, p-Value 0.703732114
  Fold Change of metabolite aspartic: 0.2407
Platform nLC, p-Value 0.708651225
  Fold Change of metabolite pyridoxine: −0.1294
Platform nLC, p-Value 0.711447529
  Fold Change of metabolite selenoDL-methionine: 0.8515
Platform nLC, p-Value 0.733962176
  Fold Change of metabolite glutamic/acetylseri: 0.1414
Platform nLC, p-Value 0.758489047
  Fold Change of metabolite asparagine: 0.1511
Platform nLC, p-Value 0.76165051
  Fold Change of metabolite phenylalanine: −0.1906
Platform nLC, p-Value 0.763305915
  Fold Change of metabolite leucine/isoleucine/: 0.1319
Platform nLC, p-Value 0.766811518
  Fold Change of metabolite serine: 0.1091
Platform nLC, p-Value 0.769444989
  Fold Change of metabolite threonine/homoserin: 0.1267
Platform nLC, p-Value 0.777964345
  Fold Change of metabolite allantoic acid: −0.1456
Platform nLC, p-Value 0.782765706
  Fold Change of metabolite tetradecanoic acid: −0.07723
Platform nLC, p-Value 0.820379809
  Fold Change of metabolite 4aminobutyrate/dimg: −0.1983
Platform nLC, p-Value 0.824169685
  Fold Change of metabolite decanoic acid: −0.08716
Platform nLC, p-Value 0.835677767
  Fold Change of metabolite glutamine/lysine: 0.07919
Platform nLC, p-Value 0.840704909
  Fold Change of metabolite NacetylL-glutamate: −0.1078
Platform nLC, p-Value 0.852876357
  Fold Change of metabolite menthol*: −0.07013
Platform nLC, p-Value 0.871015411
  Fold Change of metabolite pipecolic acid: 0.08112
Platform nLC, p-Value 0.878141701
  Fold Change of metabolite sugar-phosphate: −0.1067
Platform nLC, p-Value 0.880270386
  Fold Change of metabolite oleic acid: 0.689
Platform nLC, p-Value 0.891314692
  Fold Change of metabolite aconitic acid: 0.5426
Platform nLC, p-Value 0.90280612
  Fold Change of metabolite palmitic acid: 0.3979
Platform nLC, p-Value 0.972130606
  Fold Change of metabolite nicotinic acid: 0.3131
Platform nLC, p-Value 0.972245476
  Fold Change of metabolite lauric acid: 0.1225
Platform nLC, p-Value 1
  Fold Change of metabolite 4-methylcatechol: 0
